# In PubChem BioAssay AID1645865 (Buhrlage Lab, Dana-Farber Cancer Institute and Novartis …, 2021):
# Calls of active or inactive are those of the source.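 How the source made its calls: active means maximal inhibition of the USP30 enzyme reaching 30% or more across the dose series; inactive means the rest.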
# Target: Ubiquitin carboxyl-terminal hydrolase 30 (Homo sapiens) (UniProt Q70CQ3)
# Assay: ubiquitin-specific protease 30 DUB inhibitors, concentration-effect, biochemical, validation of primary actives (AID 1645865)
# Details: purified USP30, Ub-rhodamine cleavage, fluorescence, 2 h
# Sequence of Ubiquitin carboxyl-terminal hydrolase 30 (Homo sapiens) (Q70CQ3 whole entry, looked up): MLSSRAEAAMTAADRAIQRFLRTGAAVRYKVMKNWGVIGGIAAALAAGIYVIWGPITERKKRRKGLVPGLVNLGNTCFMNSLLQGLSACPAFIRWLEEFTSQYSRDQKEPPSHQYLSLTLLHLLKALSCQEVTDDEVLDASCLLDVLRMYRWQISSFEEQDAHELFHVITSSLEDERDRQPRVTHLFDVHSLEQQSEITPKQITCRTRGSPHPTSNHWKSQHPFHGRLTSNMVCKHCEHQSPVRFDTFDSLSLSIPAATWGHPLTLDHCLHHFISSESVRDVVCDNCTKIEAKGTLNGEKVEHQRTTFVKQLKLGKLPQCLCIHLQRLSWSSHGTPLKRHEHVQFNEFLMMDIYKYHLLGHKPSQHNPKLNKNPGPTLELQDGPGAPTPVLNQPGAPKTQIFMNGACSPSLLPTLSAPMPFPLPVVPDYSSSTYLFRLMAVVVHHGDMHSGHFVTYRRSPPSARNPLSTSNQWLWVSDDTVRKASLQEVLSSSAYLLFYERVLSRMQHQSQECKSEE
row,Compound,IC50
1,Cc1ccc(CNC(=O)CCCn2c(=O)c3sccc3n(CC(=O)OCc3ccccc3)c2=O)cc1,2 µM
2,FC(F)(F)c1cccc(Nc2nnc(-c3cccnc3)s2)c1,2.76 µM
3,O=C(CCCn1c(=O)c2ccccc2n(CC(=O)NCc2ccccc2Cl)c1=O)NCc1ccc2c(c1)OCO2,1.69 µM
4,Cc1ccc(NC(=O)c2ccc3c(c2)N(S(C)(=O)=O)CC3)cc1,34 µM
5,COc1ccc(CCNC(=O)CSc2cn(CCNC(=O)c3ccc(F)cc3)c3ccccc23)cc1OC,19.9 µM
6,Cc1cc(O)cc2cc3c(c(O)c12)C(=O)CCC3O (stereo not given),> 50 µM (inactive)
7,CC(C)OC(=O)c1cc2c(ccn2-c2ccc(F)cc2)n1CC(=O)NC1CCCCC1,> 50 µM (inactive)
8,CN1C(=O)[C@]23CC4=CC=C[C@H](O)[C@H]4N2C(=O)[C@@]1(CO)SS3,3.78 µM
9,COc1ccc(-c2nc3n(n2)C(CC(=O)Nc2cccc4ccccc24)C(=O)N3)cc1 (stereo not given),2.87 µM
10,Cc1cccc(NC(=O)c2nn(C)c3ccccc3c2=O)c1,24.6 µM
11,CCOc1ccc2c(c1)c(=O)c(C(=O)c1ccccc1)cn2CC(=O)Nc1ccccc1,4.27 µM
12,COc1cccc(OCCCn2c(C(C)NC(=O)c3ccco3)nc3ccccc32)c1 (stereo not given),34.8 µM
13,Cc1cc(C(=O)NC2(O)C(=O)c3ccccc3C2=O)n(C)n1,20.5 µM
14,Cc1ccc2oc(=O)c(S(=O)(=O)N3CCCCC3)cc2c1,12.7 µM
15,CCOc1ccc(NC(=O)Cn2c(=O)n(CCC(=O)NCc3ccco3)c(=O)c3ccccc32)cc1,4.08 µM
16,CCN(CC)C(=O)CN1CCCC(c2ncncc2-c2cc(C)no2)C1 (stereo not given),> 50 µM (inactive)
17,Cc1cc(C)nc(-n2nc(C)c3c2NC(=O)CSC3c2ccc(F)cc2F)n1 (stereo not given),31.3 µM
18,O=C1Nc2ccccc2C(=O)C1C(c1ccc(Cl)cc1)C1C(=O)Nc2ccccc2C1=O (stereo not given),> 50 µM (inactive)
19,CCOCCCn1c(SCC(=O)Nc2ccccc2C(F)(F)F)nc2ccccc2c1=O,17.1 µM
20,Cc1ccc2c(=O)c3c([nH]c2c1C)CCN(CC(=O)NCc1ccc2c(c1)OCO2)C3,> 50 µM (inactive)
21,Cc1cnc(CN2CCCC(c3ccc4cn[nH]c4n3)C2)cn1 (stereo not given),> 50 µM (inactive)
22,CCOc1ccc(-c2ccc3nnc(SCC(=O)Nc4cccc(C(C)=O)c4)n3n2)cc1,3.81 µM
23,CC1=C[C@H]2N(c3ccc(C)cc31)[C@H](C(=O)c1cccs1)[C@@H](C(=O)c1ccc(F)cc1)[C@]21C(=O)Nc2ccccc21,> 50 µM (inactive)
24,COc1ccc(C2CC(c3ccc(C)cc3)N(C(=O)C3CC3)c3ncnn32)cc1 (stereo not given),> 50 µM (inactive)
25,CC(C)(C)C(=O)C1C2C(=O)N(Cc3ccccc3)C(=O)C2C2c3ccccc3C=CN12 (stereo not given),> 50 µM (inactive)
26,Nc1c(-c2ccc(Cl)cc2)cnc2cc(-c3ccc(Cl)c(Cl)c3)nn12,1.49 µM
27,O=C(NCc1ccccc1)c1ccc(-c2ccc(N3CCCC3)nn2)cc1,> 50 µM (inactive)
28,O=C(Nc1ccc(-c2cn3ccccc3n2)cc1)C1C=C2C=C(Br)C=CC2OC1=O (stereo not given),0.337 µM

row,Compound,IC50
1,O=C(COc1nc2ccccc2nc1N1CCOCC1)Nc1cccc(S(=O)(=O)N2CCCCC2)c1,> 50 µM (inactive)
2,Cc1ccc(-c2ncc(C(=O)NCc3cccc(C)c3)c(-c3ccncc3)n2)cc1,> 50 µM (inactive)
3,COc1ccc(N2CCN(Cc3nnnn3Cc3ccc4c(c3)OCO4)CC2)cc1,> 50 µM (inactive)
4,CCCc1nc2sc3c(NC4CCCCC4)ncnc3c2c2c1CCC2,> 50 µM (inactive)
5,O=C(Cc1ccccc1F)N1CCC2(CC1)CC1(CO2)Nc2ccccc2-n2cccc21 (stereo not given),> 50 µM (inactive)
6,COc1ccc(CCC(=O)Nc2ccc3c(c2)Sc2ncccc2C(=O)N3C)cc1,> 50 µM (inactive)
7,COc1ccc(-c2cc(-c3nnc(CSc4nc5ccccc5n4C)o3)c3ccccc3n2)cc1OC,> 50 µM (inactive)
8,COc1cccc(N2CCN(C(=O)c3cc(NC(C)=O)cc4nc(C)ccc34)CC2)c1,> 50 µM (inactive)
9,O=C(NC1CCCCC1)c1cc2c(cn1)[nH]c1ccccc12,> 50 µM (inactive)
10,COc1cccc(Cn2nc3n(CC(C)C)c(=O)c4ccc(C(=O)NCC(C)C)cc4n3c2=O)c1,2.37 µM
11,COc1ccc(CCNC(=O)c2c(N)n(-c3cccc(Cl)c3)c3nc4ccccc4nc23)cc1,> 50 µM (inactive)
12,N#Cc1ccccc1OCc1csc(-c2ccccc2)n1,> 50 µM (inactive)
13,CC(OC(=O)c1c2c(nc3ccccc13)CCCCC2)C(=O)Nc1ccc2ccccc2c1 (stereo not given),2.65 µM
14,Nc1c(C(=O)NCc2ccc3c(c2)OCO3)nnn1Cc1ccc(Br)cc1F,2.35 µM
15,COc1ccc(NC(=O)c2nnn(-c3ccccc3)c2C)cc1OC,> 50 µM (inactive)
16,CC(C)c1ccc(NC(=O)c2cc3ncc(Br)cn3n2)cc1,> 50 µM (inactive)
17,CC1CCN(c2nc(F)c3c(c2F)S(=O)(=O)CCN3Cc2cccnc2)CC1,> 50 µM (inactive)
18,O=S1(=O)CCN(Cc2ccccc2)c2c(F)nc(N3CCCCC3)c(F)c21,> 50 µM (inactive)
19,Cc1cc(C(=O)Nc2cc(C)n(Cc3ccc(Cl)cc3)n2)no1,> 50 µM (inactive)
20,CCC(=O)OCc1cnc(C)c2oc(=O)c(-c3nc(-c4ccccc4)no3)cc12,> 50 µM (inactive)
21,O=C(NCCc1ccccc1)c1nnn(Cc2cccc(Cl)c2)c1-n1cccc1,> 50 µM (inactive)
22,Cc1cccc(C(=O)Nc2ccccc2Sc2nc3c(c(=O)n(C)c(=O)n3C)n2C)c1,32.5 µM
23,Cc1ccc(-n2c(=O)c3ccccc3n(Cc3c(F)cccc3Cl)c2=O)cc1,2.25 µM
24,COc1ccc(CNC(=O)CCc2nnc3n(Cc4ccccc4Cl)c(=O)c4ccccc4n23)cc1,2.65 µM
25,COc1ccc(NC(=O)c2ccc(Nc3nnc(C)c4ccccc34)cc2)cc1,> 50 µM (inactive)
26,COC(=O)COc1ccc(/C=N/NC(=O)c2ccc(CN3CCc4ccccc4C3)cc2)cc1,26.7 µM
27,Cc1ccc(-c2nc(-c3cccs3)cc(C(F)(F)F)c2C#N)cc1,> 50 µM (inactive)
